PubChem BioAssay AID1552 (Sanford-Burnham Center for Chemical Genomics, 2009)
Activity calls are given as the source filed them. How the calls were made is not given here.

Molecular target: Ubiquitin-conjugating enzyme E2 N (Homo sapiens) (UniProt P61088)
Assay: NMR detection of UBE2N ligand binding – biophysical, purified protein (AID 1552)
Conditions: NMR binding to purified UBE2N

Chain of Ubiquitin-conjugating enzyme E2 N (Homo sapiens) (P61088 whole entry, looked up): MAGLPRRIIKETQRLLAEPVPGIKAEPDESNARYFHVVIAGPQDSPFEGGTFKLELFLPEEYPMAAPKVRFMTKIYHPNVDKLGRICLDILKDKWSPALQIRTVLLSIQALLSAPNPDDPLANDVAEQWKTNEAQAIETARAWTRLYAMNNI

Row | Compound | Kd
1 | O=C(Cc1cccs1)Nc1nncs1 | > 4 mM (inactive)
2 | O=C(O)CCSc1nc2ccccc2s1 | > 4 mM (inactive)
3 | CN(C)Cc1nc2c([nH]1)c(=O)[nH]c(=O)n2C | > 4 mM (inactive)
4 | CC(C)(C)Cc1nc(-c2ccccn2)no1 | > 4 mM (inactive)
5 | COC(=O)Cc1cc(=O)n(-c2nc3ccccc3s2)[nH]1 | > 4 mM (inactive)
6 | CNC(=O)c1ccc([N+](=O)[O-])cc1Cl | > 4 mM (inactive)
7 | O=C(c1cnsn1)N1CCN(c2ccccn2)CC1 | > 4 mM (inactive)
8 | COc1cc(O)c(C)c(O)c1 | > 4 mM (inactive)
9 | O=C(c1ccc(F)cc1)C1CCNCC1 | > 4 mM (inactive)
10 | CN1CCC(N2CCCC(C(N)=O)C2)CC1 (stereo not given) | > 4 mM (inactive)
11 | CC(=O)Nc1nnc(-c2ccccc2)o1 | > 4 mM (inactive)
12 | CCOC(=O)c1c[nH]c2c(F)cccc2c1=O | > 4 mM (inactive)
13 | Nc1ccc(O)cn1 | > 4 mM (inactive)
14 | OCCCc1nc2ccc(C(F)(F)F)cc2[nH]1 | > 4 mM (inactive)
15 | CCCCCc1c2c(cc(O)c1C(=O)O)OC(=O)c1c(cc(OC)cc1C(=O)CCCC)O2 | > 4 mM (inactive)
16 | O=C(Nc1cnccn1)c1cccc(C(F)(F)F)c1 | > 4 mM (inactive)
17 | O=C1CN(C(=O)CN2CCOCC2)c2ccccc2N1 | > 4 mM (inactive)
18 | CC1=CC(C)C(C(=O)O)C(C(=O)N2CCN(C)CC2)C1 (stereo not given) | > 4 mM (inactive)
19 | CC(=O)O[C@]1(C)CC[C@@]23CC1C(C)(C)[C@@H]2CC[C@H]3C | > 4 mM (inactive)
20 | Cc1ccc(N)nc1 | > 4 mM (inactive)
21 | Cc1occc1C(=O)NCc1ccccc1F | > 4 mM (inactive)
22 | COc1ccc(-c2nc3nc(C)cc(C)n3n2)cc1 | > 4 mM (inactive)
23 | CSc1ccccc1C(=O)N1CCOCC1 | > 4 mM (inactive)
24 | COC(=O)c1ccccc1C | > 4 mM (inactive)

Row | Compound | Kd
25 | COc1ccc(NS(=O)(=O)c2ccc(N)cc2)nn1 | > 4 mM (inactive)
26 | COc1ccc(-c2coc3cc(O)ccc3c2=O)c(OC)c1 | > 4 mM (inactive)
27 | CC[C@H](CCC(C)[C@H]1CCC2C3CCC4C[C@@H](O)CC[C@]4(C)C3CC[C@@]21C)C(C)C (stereo not given in full) | > 4 mM (inactive)
28 | NC(=O)C1(S(=O)(=O)c2ccccc2)CC1 | > 4 mM (inactive)
29 | CC(=O)OCC[C@H](C)CCC=C(C)C | > 4 mM (inactive)
30 | CCOC(=O)c1ccc(F)c(F)c1 | > 4 mM (inactive)
31 | O=C(O)CCc1nc2ccccc2[nH]c1=O | > 4 mM (inactive)
32 | NC12CC3CC(C1)CC(C(=O)O)(C3)C2 | > 4 mM (inactive)
33 | c1ccc(NCc2nc(-c3ccccc3)no2)cc1 | > 4 mM (inactive)
34 | COc1cc(C(=O)NCC2CCCO2)cc(OC)c1OC (stereo not given) | > 4 mM (inactive)
35 | COc1c(O)cc(O)cc1O | > 4 mM (inactive)
36 | CN1C(=O)C2CC=C(Cl)CC2C1=O (stereo not given) | > 4 mM (inactive)
37 | O=C(Nc1ccon1)c1ccc(Br)o1 | > 4 mM (inactive)
38 | NC(=S)N1CCC(c2ccccc2)=N1 | > 4 mM (inactive)
39 | Cc1ncc(C[n+]2csc3ccccc32)c(N)n1 | > 4 mM (inactive)
40 | O=C1COc2cc(O)ccc21 | > 4 mM (inactive)
41 | COC(=O)C[C@@H]1C2(C)C(=O)[C@@H](CC3C2CC[C@]2(C)C3CC(=O)O[C@H]2c2ccoc2)[C@H](OC(C)=O)C1(C)C (stereo not given in full) | > 4 mM (inactive)
42 | O=C(O)c1cc2ccccc2[nH]1 | > 4 mM (inactive)
43 | CCSc1nc(=S)n(CC)c(C)c1C(C)=O | > 4 mM (inactive)
44 | CCCCn1c(S(=O)(=O)O)nc2ccccc21 | > 4 mM (inactive)
45 | CC(=O)NC(=S)Nc1ccc(N(C)C(C)=O)cc1 | > 4 mM (inactive)
46 | COc1cc(OC)c2c(=O)c(-c3ccc4c(c3)OCO4)coc2c1 | > 4 mM (inactive)
47 | COc1ccc2c(c1OC)C(=O)OC2[C@H]1c2c(cc3c(c2OC)OCO3)CCN1C (stereo not given in full) | > 4 mM (inactive)
48 | O=C(Cc1cccs1)Nc1ccon1 | > 4 mM (inactive)

Row | Compound | Kd
49 | COc1cccc2onc(N)c12 | > 4 mM (inactive)
50 | CC1(C)N([O-])c2cc([N+](=O)[O-])ccc2[N+]1=O | > 4 mM (inactive)
51 | NS(=O)(=O)c1ccc(N=C2NC(=O)CS2)cc1 | > 4 mM (inactive)
52 | O=C1NNC(=O)C2C3c4ccccc4C(c4ccccc43)C12 (stereo not given) | > 4 mM (inactive)
53 | CCCCCC1C(=O)CCC1CC(=O)O (stereo not given) | > 4 mM (inactive)
54 | N#Cc1cc(-c2ccccc2)oc1N | > 4 mM (inactive)
55 | CSc1nnc(-c2ccccc2NC(C)=O)o1 | > 4 mM (inactive)
56 | Cc1noc(C)c1C(=O)N1CCC2(CC1)OCCO2 | > 4 mM (inactive)
57 | c1ccc(-c2nsc(N3CCCNCC3)n2)cc1 | > 4 mM (inactive)
58 | O=C(O)c1ccc(N2CCOCC2)nc1 | > 4 mM (inactive)
59 | CN1CCN(C(=S)c2ccc(N(C)C)cc2)CC1 | > 4 mM (inactive)
60 | O=S1(=O)CCC(N2CCCCC2)C1 (stereo not given) | > 4 mM (inactive)
61 | Cc1c(C(=O)NC2=NCCS2)oc2ccccc12 | > 4 mM (inactive)
62 | CS(=O)(=O)Cc1ccccc1 | > 4 mM (inactive)
63 | CN(C)c1n[nH]c(=O)[nH]c1=O | > 4 mM (inactive)
64 | Cc1nnc(SCC(=O)NC2CCCC2)[nH]c1=O | > 4 mM (inactive)
65 | Cc1cc(=O)oc2c1c(C)nn2CN1CCN(C)CC1 | > 4 mM (inactive)
66 | COc1c2c(c(CC=C(C)C)c3oc(=O)c(-c4ccc(O)cc4)c(O)c13)OC(C)(C)C=C2 | > 4 mM (inactive)
67 | NC(=O)c1ccsc1NC(=O)c1ccco1 | > 4 mM (inactive)
68 | O=c1c(O)cccc2cc(O)c(O)c(O)c12 | > 4 mM (inactive)
69 | O=C1CC2OCC=C3CN4CC[C@]56c7ccccc7N1C5[C@H]2[C@H]3CC46 (stereo not given in full) | > 4 mM (inactive)
70 | Cn1nccc1N | > 4 mM (inactive)
71 | COc1cccc(Oc2ccc(N)cn2)c1 | > 4 mM (inactive)
72 | CC(=O)c1ccc(NC(=S)N2CCC(O)CC2)cc1 | > 4 mM (inactive)

Row | Compound | Kd
73 | CC1(C)Cc2c(c(-c3ccco3)[nH]c(=O)c2C#N)CO1 | > 4 mM (inactive)
74 | CCOc1ccccc1C(=O)NC1=NCCS1 | > 4 mM (inactive)
75 | CC(=O)O[C@H]1C[C@@H](OC(C)=O)C(C)(C)C2C[C@@H](OC(C)=O)[C@]3(C)C(CC[C@@]4(C)[C@H](c5ccoc5)C(=O)[C@H]5O[C@]543)[C@]21C (stereo not given in full) | > 4 mM (inactive)
76 | CC(=O)O[C@H]1C[C@@H](OC(C)=O)C(C)(C)C2CC(=O)[C@]3(C)C(CC[C@@]4(C)[C@H](c5ccoc5)OC(=O)[C@H]5O[C@]543)[C@]21C (stereo not given in full) | > 4 mM (inactive)
77 | OCc1ccc(OC(F)(F)F)cc1 | > 4 mM (inactive)
78 | Cc1cc(NC(=O)c2c(F)c(F)c(F)c(F)c2F)no1 | > 4 mM (inactive)
79 | CS(=O)(=O)Nc1ccc(C(=O)N2CCCCC2)cc1 | > 4 mM (inactive)
80 | CC1=[N+]([O-])C2(N)CCc3c(no[n+]3[O-])C2(O)C1 (stereo not given) | > 4 mM (inactive)
81 | CS(=O)(=O)N1CCN(C(=O)c2ccccc2)C1 | > 4 mM (inactive)
82 | NCCNC(=S)Nc1ccccc1 | > 4 mM (inactive)
83 | c1cncc(C(N2CCOCC2)N2CCOCC2)c1 | > 4 mM (inactive)
84 | COc1cc2c(cc1OC)C(C)NCC2 (stereo not given) | > 4 mM (inactive)
85 | CSc1nnnn1-c1cccc(O)c1 | > 4 mM (inactive)
86 | O=C(O)c1ccc2occc2c1 | > 4 mM (inactive)
87 | COc1ccccc1-c1n[nH]c(=O)o1 | > 4 mM (inactive)
88 | Cc1nc(NCc2ccco2)nc2c1C(=O)CC(C)C2 (stereo not given) | > 4 mM (inactive)
89 | CN(C)Cc1c(N)cccc1O | > 4 mM (inactive)
90 | CC1(C)Oc2ccc3ccc(=O)oc3c2CC1O (stereo not given) | > 4 mM (inactive)
91 | CN1CCN(Cc2cccnc2)CC1 | > 4 mM (inactive)
92 | Cc1nc(-c2cccc(-c3noc(C)n3)c2)no1 | > 4 mM (inactive)
93 | CN1C2CC(OC(=O)[C@H](CO)c3ccccc3)C[C@H]1[C@H]1OC21 (stereo not given in full) | > 4 mM (inactive)
94 | C=C[C@H]1CN2CC[C@H]1C[C@H]2[C@H](O)c1ccnc2ccccc12 | > 4 mM (inactive)
95 | CC(=O)Nn1cc2c(=O)n(C)c(=O)n(C)c2c1 | > 4 mM (inactive)
96 | Cc1c(C(=O)Nc2ccccn2)oc2ccccc12 | > 4 mM (inactive)

Row | Compound | Kd
97 | Cc1c(C)[n+]([O-])c(-c2ccc([N+](=O)[O-])cc2)n1O | > 4 mM (inactive)
98 | Nc1ccc2c(c1)CCCC2=O | > 4 mM (inactive)
99 | O=C(O)c1ccc(NCc2cccnc2)cc1 | > 4 mM (inactive)
100 | NC(=O)CSCc1ccc(Br)cc1 | > 4 mM (inactive)
101 | COC(=O)c1cccc2cc[nH]c12 | > 4 mM (inactive)
102 | Cc1cc(C(F)(F)F)n2nc(C(=O)O)c(Cl)c2n1 | > 4 mM (inactive)
103 | COc1ccc(Cl)c(S(=O)(=O)N2CCCC2)c1 | > 4 mM (inactive)
104 | Cc1nn(C)c(Cl)c1C(O)c1c(C)nn(C)c1Cl | > 4 mM (inactive)
105 | COc1cc(C(C)=O)ccc1OC(=O)N1CCOCC1 | > 4 mM (inactive)
106 | CC(=O)NC1C(=O)Nc2c(C)cc(C)cc21 (stereo not given) | > 4 mM (inactive)
107 | CN1CCN(C(=O)c2ccco2)CC1 | > 4 mM (inactive)
108 | Cc1c(N=CN(C)C)c(=O)n(-c2ccccc2)n1C | > 4 mM (inactive)
109 | Nn1c(CN2CCCCC2)nc2ccccc2c1=O | > 4 mM (inactive)
110 | CC(=O)Oc1ccccc1N1C(=O)C=CC1=O | > 4 mM (inactive)
111 | c1cncc(-c2nnc(-c3cccnc3)nn2)c1 | > 4 mM (inactive)
112 | Cc1ccc(N2NC(=O)CC2=O)cc1C | > 4 mM (inactive)
113 | NC(=O)c1ccc(N2C(=O)C=CC2=O)cc1Cl | > 4 mM (inactive)
114 | O=C(Nc1ccccc1N1CCCC1)c1cccnc1 | > 4 mM (inactive)
115 | CCOC(=O)C1CCN(Cc2ccccc2)CC1=O (stereo not given) | > 4 mM (inactive)
116 | COc1ccc(C2CC(=O)c3ccc(OC)cc3O2)cc1 (stereo not given) | > 4 mM (inactive)
117 | Cc1cc(C(=O)NN2CCOCC2)c(C)o1 | > 4 mM (inactive)
118 | c1ccc(Cc2nn3c(-c4ccncc4)nnc3s2)cc1 | > 4 mM (inactive)
119 | Cn1ncc(NC(=O)Nc2ccc(F)cc2F)c1C(N)=O | > 4 mM (inactive)
120 | CC(=O)c1c(C)n(O)c2ccc3nonc3c12 | > 4 mM (inactive)
